# Active and inactive are the calls of the source.
# Assays:
# [1] = molecular target: T1, Aminopeptidase N (Plasmodium falciparum FcB1/Columbia, UniProt O96935); experiment: malaria alanyl aminopeptidase activity blockers – biochemical, fluorogenic H-Leu-NHMec substrate, 1536-well (AID 1445); set-up: species or system Plasmodium falciparum 3D7, 3D7
# T1 sequence (O96935 whole entry): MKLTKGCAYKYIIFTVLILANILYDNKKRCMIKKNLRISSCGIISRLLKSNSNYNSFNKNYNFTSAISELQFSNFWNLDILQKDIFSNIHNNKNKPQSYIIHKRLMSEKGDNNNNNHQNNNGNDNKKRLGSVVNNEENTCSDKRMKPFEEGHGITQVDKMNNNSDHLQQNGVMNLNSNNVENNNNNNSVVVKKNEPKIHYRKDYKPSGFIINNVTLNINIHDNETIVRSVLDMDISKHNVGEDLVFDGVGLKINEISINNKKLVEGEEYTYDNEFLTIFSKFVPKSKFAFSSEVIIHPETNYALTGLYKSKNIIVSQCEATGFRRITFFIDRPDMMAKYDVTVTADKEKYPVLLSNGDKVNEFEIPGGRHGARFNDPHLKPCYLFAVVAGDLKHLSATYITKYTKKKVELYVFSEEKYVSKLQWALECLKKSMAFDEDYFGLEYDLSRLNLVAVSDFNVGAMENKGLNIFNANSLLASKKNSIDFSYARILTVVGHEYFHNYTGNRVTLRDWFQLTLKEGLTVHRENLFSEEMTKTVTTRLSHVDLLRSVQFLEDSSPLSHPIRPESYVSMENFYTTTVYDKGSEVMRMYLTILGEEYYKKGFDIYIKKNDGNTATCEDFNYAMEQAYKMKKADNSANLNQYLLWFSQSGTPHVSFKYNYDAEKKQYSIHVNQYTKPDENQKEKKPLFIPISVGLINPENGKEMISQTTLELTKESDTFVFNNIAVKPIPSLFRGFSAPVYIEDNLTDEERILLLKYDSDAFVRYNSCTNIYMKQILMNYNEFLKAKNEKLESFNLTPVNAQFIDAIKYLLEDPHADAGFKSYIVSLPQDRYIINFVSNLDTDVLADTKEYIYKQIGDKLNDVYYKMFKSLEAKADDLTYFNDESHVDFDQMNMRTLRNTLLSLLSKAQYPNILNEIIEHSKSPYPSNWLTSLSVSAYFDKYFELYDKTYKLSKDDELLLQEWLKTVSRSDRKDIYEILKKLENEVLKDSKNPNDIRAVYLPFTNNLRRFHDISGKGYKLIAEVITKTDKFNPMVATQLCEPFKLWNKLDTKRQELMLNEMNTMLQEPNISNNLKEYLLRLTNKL
# [2] = off-target signal loss in HeLa-CEM21 co-culture – HeLa F-luc CTL cells, cherry-picked, counter-screen for HIV-1 Env fusion inhibitor project, dose response (AID 652040); format: functional, cell-based;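 further: potency for signal decrease marking cytotoxic or nonspecific inhibition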
# [3] = THP-1 cell cytotoxicity, dose response, cytotoxicity control for non-replicating M. tuberculosis project (AID 489025); format: functional
# [4] = viability of PTEN-deleted HCT116 cells – cell-based, HCT116 PTEN knockout, dose response (AID 1047); format: functional;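 further: HCT116 colon tumor cells with PTEN knocked out; cells exposed to compound for 60 hours before readout; potency for loss of cell viability measured by luminescence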
# [5] = cells; format: functional
# [6] = viability of HCT116 lacking mutant beta-catenin – cell-based, human colon tumor, dose response (AID 1045); format: functional;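 further: HCT116 colon tumor cells with beta catenin knocked out; cells exposed to compound for 60 hours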
# [7] = molecular target: Heat shock protein HSP 90-alpha (Homo sapiens, UniProt P07900); format: functional, organism-based
# [8] = cells; format: functional, cell-based
# [9] = cells; format: functional, cell-based; remark: listed apart in the source
# [10] = microbe, parasite or virus in culture; format: functional; conditions: Mycobacterium tuberculosis
# [11] = molecular target: T2, Leucine aminopeptidase (Plasmodium falciparum 3D7, UniProt Q8IL11); experiment: P. falciparum M17LAP inhibitors, primary screen, biochemical, fluorogenic H-Leu-NHMec substrate, 1536-well (AID 1619); format: functional
# T2 sequence (Q8IL11 whole entry): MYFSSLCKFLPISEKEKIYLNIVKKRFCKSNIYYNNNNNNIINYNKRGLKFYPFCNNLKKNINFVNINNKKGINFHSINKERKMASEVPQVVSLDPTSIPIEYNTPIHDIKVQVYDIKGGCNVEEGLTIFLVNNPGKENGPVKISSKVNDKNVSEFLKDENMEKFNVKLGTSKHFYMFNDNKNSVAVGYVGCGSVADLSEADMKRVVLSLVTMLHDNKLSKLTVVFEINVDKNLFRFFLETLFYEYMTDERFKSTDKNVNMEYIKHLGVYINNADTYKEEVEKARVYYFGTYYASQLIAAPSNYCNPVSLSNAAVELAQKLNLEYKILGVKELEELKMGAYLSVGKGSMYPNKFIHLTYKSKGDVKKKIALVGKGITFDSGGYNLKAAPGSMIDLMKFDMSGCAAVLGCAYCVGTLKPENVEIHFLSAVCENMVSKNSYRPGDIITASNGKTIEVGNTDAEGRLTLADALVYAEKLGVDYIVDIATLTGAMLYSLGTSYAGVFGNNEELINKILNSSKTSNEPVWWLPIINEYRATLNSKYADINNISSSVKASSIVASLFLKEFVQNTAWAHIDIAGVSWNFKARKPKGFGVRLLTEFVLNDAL
# [12] = system: Streptococcus; experiment: GAS UMAA2166 growth inhibition – luminescence, BacTiterGlo, counter-screen for streptokinase expression inhibitor project, dose response (AID 1915); format: functional, organism-based;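 further: potency for reduction of bacterial viability or growth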
# [13] = system: Streptococcus sp. 'group A'; experiment: Streptococcus pyogenes SK(-)GAS viability under kanamycin – luminescence, BacTiterGlo, confirmation, counter-screen for streptokinase expression inhibitor project, dose response (AID 1900); format: functional, organism-based
# [14] = molecular target: T3, Streptokinase A (Streptococcus pyogenes serotype M1, UniProt P10520); experiment: viability-normalized secreted streptokinase activity reduction – plasminogen activation absorbance, OD405, dose response (AID 1914); format: functional, Streptococcus pyogenes M1 GAS;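 further: secreted streptokinase activity via plasminogen activation per viability signal from cell pellet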
# T3 sequence (P10520 whole entry): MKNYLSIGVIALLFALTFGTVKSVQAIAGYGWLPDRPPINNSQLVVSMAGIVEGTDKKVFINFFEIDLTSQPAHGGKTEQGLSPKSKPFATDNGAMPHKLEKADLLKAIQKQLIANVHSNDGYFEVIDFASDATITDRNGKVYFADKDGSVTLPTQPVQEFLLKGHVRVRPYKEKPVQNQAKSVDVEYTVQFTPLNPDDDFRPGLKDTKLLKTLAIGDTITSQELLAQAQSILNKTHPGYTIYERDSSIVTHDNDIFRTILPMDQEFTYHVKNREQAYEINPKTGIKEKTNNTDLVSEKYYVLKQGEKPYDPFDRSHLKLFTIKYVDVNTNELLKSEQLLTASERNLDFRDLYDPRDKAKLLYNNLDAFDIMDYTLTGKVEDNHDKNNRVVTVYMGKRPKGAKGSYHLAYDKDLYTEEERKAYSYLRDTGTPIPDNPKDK
# [15] = HIV-1 AD8 envelope cell-cell fusion blockers – cherry-pick, dose response (AID 652062); format: functional, cell-based;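 further: luciferase signal from cell-cell fusion driven by HIV-1 clade B AD8 Env; potency is for inhibitors of fusion seen as a drop in luminescence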
# [16] = blockers of HIV-1 envelope-mediated cell-cell fusion – cherry-pick, dose response (AID 652057); format: functional, cell-based
# [17] = system: INS1; experiment: INS-1E survival protection against cytokine death – cell-based, luminescence, retest, dose response (AID 449756); format: functional; conditions: Rattus norvegicus;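 further: cell death triggered by IL-1 beta plus TNF-alpha plus IFN-gamma mixture; protective hits raise ATP signal compared with cytokine alone wells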
structure (smiles),measurement,setting,value
CCOC(=O)CC1C(=O)NCCN1c1nc2c(C)cccn2c(=O)c1/C=C1\SC(=S)N(CC(C)C)C1=O (configuration not stated),IC50,[1],42.5 µM (active)
O=C(Nc1cccc(OC(=O)N2CCOCC2)c1)N1CCOCC1,AC50,[2],> 70 µM (inactive)
CCCOc1ccc(-c2nc(C#N)c(NCCCn3ccnc3)o2)cc1,CC50,[3],27.6 µM (active)
same,EC50,[4],61.8 µM (active)
same,IC50,[5],22.4 µM (active)
same,EC50,[6],10.2 µM (active)
COc1ccc(NC2CCN(C3CC(=O)N(c4ccc(F)c(Cl)c4)C3=O)CC2)cc1 (configuration not stated),AC50,[7],4.11 µM (active)
CCOC(=O)c1c(C)[nH]c(C(=O)OCc2ccccc2F)c1C,EC50,[8],93.5 µM (active)
same,EC50,[9],> 350 µM (not active)
Cn1ncc(Br)c1C(=O)OCC(=O)Nc1nc(-c2ccccc2)cs1,EC50,[8],36.4 µM (active)
same,EC50,[9],> 350 µM (not active)
Cc1ccc(C2(C)NC(=O)N(CC(=O)NC(=O)NC(C)(C)C)C2=O)cc1 (configuration not stated),EC50,[8],> 350 µM (not active)
same,EC50,[9],> 350 µM (not active)
CCN(CC)CCNCc1nc2ccccc2c(=O)n1-c1ccc(F)cc1,EC50,[8],> 350 µM (not active)
same,EC50,[9],> 350 µM (not active)
Cn1cccc1C(=O)NC(=O)COC(=O)c1cc(S(=O)(=O)N2CCCCC2)ccc1Cl,EC50,[8],> 350 µM (not active)
same,EC50,[9],> 350 µM (not active)
O=C(Nc1nccs1)c1ccc(COc2ccc(Cl)cc2)o1,CC50,[3],> 40 µM (active)
CN(CC(=O)Nc1ccccc1Br)C(=O)c1cccnc1Nc1cccc(C(F)(F)F)c1,CC50,[10],19.9 µM (active)
N#C[C-](C#N)c1nc2ccccc2nc1-[n+]1cccc(NC(=O)c2ccc(F)cc2)c1,EC50,[8],> 350 µM (not active)
same,EC50,[9],> 350 µM (not active)
Cc1cccc(-c2ncc(CN3CCC(CO)(CCCc4ccccc4)CC3)cn2)c1,CC50,[10],> 40 µM (active)
O=c1oc2c(CN3CCOCC3)c(O)c(Cl)cc2c2c1CCC2,IC50,[1],42.9 µM (active)
CCOC(=O)/C(=C/c1ccc(OC(=O)c2ccccc2)cc1)C(C)=O,AC50,[7],2.06 µM (active)
N#Cc1c(-c2ccccc2)nc(SCC(=O)N(c2ccccc2)c2ccccc2)[nH]c1=O,IC50,[1],34.3 µM (active)
O=C(C[n+]1ccn(CCCNP2(=O)C=C(c3ccccc3)OC(c3ccccc3)=C2)c1)c1cccs1,EC50,[8],> 350 µM (not active)
same,EC50,[9],> 350 µM (not active)
CCOC(=O)C1=C(Nc2ccc(C)cc2)S/C(=C\c2ccc(OCC(=O)O)c(OCC)c2)C1=O,IC50,[11],15.6 µM (active)
same,IC50,[1],48.6 µM (active)
O=c1oc2c(CN3CCOCC3)c(O)c(Cl)cc2c2c1CCCC2,IC50,[1],32.2 µM (active)
Cc1n[nH]c(C)c1CCOc1ccc(C(C)C)cc1,CC50,[3],> 40 µM (active)
same,EC50,[12],43.6 µM (active)
same,EC50,[13],25.1 µM (active)
same,IC50,[5],12.2 µM (active)
same,EC50,[14],> 150 µM (not active)
C(=NN=C1c2ccccc2-c2ccccc21)c1c[nH]c2ccccc12,AC50,[7],5.17 µM (active)
C[C@H]1CN([C@@H](C)CO)S(=O)(=O)c2ccc(C3=CCCC3)cc2O[C@H]1CN(C)Cc1ccccc1,AC50,[15],25.1 µM (active)
same,AC50,[16],18.5 µM (active)
Cc1cccc(/C=N/NC(=O)c2c(-c3ccccc3)noc2C)c1O,EC50,[8],> 350 µM (not active)
same,EC50,[9],23 µM (active)
same,AC50,[17],1.5 µM (active)
O=C/C(=N\Nc1cccc(C(F)(F)F)c1)C(=O)c1ccccc1,AC50,[7],6.15 µM (active)

# Source: ChEMBL document CHEMBL1201862, “PubChem BioAssay data set” (2004)
